Experiments:
[1] = tested on: Capitate peg neuron A (cpA), a carbon dioxide sensor that does not contain Orco; assay: Single sensillum recordings (SSRs), maxillary palp capitate peg neuron A; type: in vivo, Anopheles gambiae; details: cpA is the negative control; for Puffing cpA: Puffing: airstream only for compound delivery; for Huffing cpA: Huffing: airstream in combination with heat (propane or butane torch)
Experimental: (§1) Single sensillum recordings (SSRs) were performed on single capitate peg (cp) sensillum along the maxillary palps that house three types of olfactory receptor neurons (ORNs). 5- to 7-d-old non-blood fed female Anopheles gambiae that were maintained on 10% sucrose at 12h/12h light/dark cycle were used. Mosquitoes were immobilized by chilling at -20° C. for 1 min before removing wings and legs and then fixing on a glass coverslip covered with double-sided sticky tape. Maxillary palps were extended and held onto the double-sided sticky tape with a piece of hair brush thread. Chloridized silver wires in drawn-out glass capillaries were filled with 0.1% KCl and used as reference and recording electrodes. The reference electrode was placed in the eye, and recording electrode was brought into contact with the sensillum under the microscope (Olympus BX51WI; 800× magnification) by use of a Piezo-Patch micromaniputor (PPM5000; World Precision Instruments). The signals were digitized by the IDAC4 interface box (Syntech, Hilversum, The Netherlands) and offline analysis carried out by using analyzed with AutoSpike v. 3.2 software (Syntech). The extracellular activity of individual capitate peg sensillum ORNs are physiologically distinct and can be characterized into cpA (large), cpB (medium), and cpC (small) based on their spike amplitudes and shape. Responses were quantified by subtracting the number of spikes 1 s before odor stimulation from the number of spikes 1 s after the onset of odor stimulation from individual preparations. […] A 25 μL (VUAA1) or 25 μL aliquot (VUAnt) was then applied to a filter paper strip and placed inside a glass Pasteur pipette. The compound was then delivered by heating the pipette by a propane or butane torch right at the place of treatment for approximately 1 seconds. The compound was then delivered by puffing the odor cartridges with a controlled 0.5-s stimulus of air (5 mL/s) into a humidified airstream (10 mL/s), which was passed over the sensillum. Alternatively, 2-5 mgs of solid compound were measured into a glass Pasteur pipette. The glass pipette was then exposed to heat from a micro propane or butane torch for approximately 5 to 10 seconds. The compound was then delivered by puffing the odor cartridges with a controlled 0.5-s stimulus of air (5 mL/s) into a humidified airstream (10 mL/s), which was passed over the sensillum. Each compound was subjected to in vivo single […] recordings (SSRs) from the maxillary palp of An. gambiae. Puffing refers to use of an airstream only for compound delivery. Huffing refers to the use of an airstream in combination with heat. Specifically, huffing involved direct combustion of the solid compound via propane or butane torch. […] Capitate peg neurons B/C (cpB/C) are neurons known to contain Orco. Carbon dioxide activates only cpA, while 1-octen-3-ol is a known activator of cpB/C.

[2] = tested on: Capitate peg neurons B/C (cpB/C), neurons known to contain Orco; assay: Single sensillum recordings (SSRs), maxillary palp capitate peg neurons B/C; type: in vivo, Anopheles gambiae; details: for Puffing cpB/C: Puffing: airstream only for compound delivery; for Huffing cpB/C: Huffing: airstream in combination with heat (propane or butane torch)
Experimental: as §1

[3] = tested on: odorant receptor neuronal cells expressing Orco; assay: Currents in odorant receptor neuronal cells expressing Orco; type: cell-based, Drosophila melanogaster; details: thermally volatized compound; FIG. 3

| SMILES | Puffing cpA [1] | Puffing cpB/C [2] | Huffing cpA [1] | Huffing cpB/C [2] | currents induced in odorant receptor neuronal cells expressing Orco [3] |
| --- | --- | --- | --- | --- | --- |
| O=C=O [CO2, carbon dioxide, reference compound] | +++ (+++ = >40 spikes/s) | − (− = <10 spikes/s) | – | – | – |
| C=CC(O)CCCCC (centres unmarked) [Compound 1-octen-3-ol, 1-octen-3-ol, reference compound] | − (− = <10 spikes/s) | +++ (+++ = >40 spikes/s) | – | – | – |
| CCn1c(SCC(=O)Nc2ccc(C)cc2)nnc1-c1cccnc1 [Compound 1] | − (− = <10 spikes/s) | − (− = <10 spikes/s) | − (− = <10 spikes/s) | +++ (+++ = >40 spikes/s) | – |
| CCc1ccc(NC(=O)CSc2nnc(-c3cccnc3)n2CC)cc1 [Compound 2] | − (− = <10 spikes/s) | − (− = <10 spikes/s) | − (− = <10 spikes/s) | + (+ = 10-20 spikes/s) | currents induced |
| CCn1c(SCC(=O)N2c3ccccc3Sc3ccccc32)nnc1-c1ccco1 [Compound 4, 2-[[4-ethyl-5-(2-furanyul)-4H-1,2,4-triazol-3-yl]thio]-1-(10OH-phenothiazin-10-yl)-ethanone] | − (− = <10 spikes/s) | − (− = <10 spikes/s) | + (+ = 10-20 spikes/s) | + (+ = 10-20 spikes/s) | – |
